≈ marks a conversion by molar mass, not a printed value.
What was measured:
[1] = test system: brown planthoppers (Nilaparvata lugens Stal); assay: Utility Example-1: LC50 on adult brown planthoppers on dipped rice plants; format: in vivo; conditions: Nilaparvata lugens, 24 h, 25° C., read-out: Pesticidal activity LC50
Procedure, shortened: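 Rice plants 4 weeks from sowing were dipped in water-diluted 1% emulsifiable concentrate at set concentrations and air-dried. Thirty adult N. lugens were caged on each pot, held at 25 °C.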

[2] = Fish toxicity safety factor (TLm divided by maximum concentration in cover water); parameters: species or system carp; conditions: in vivo, TLm / maximum concentration in cover water at LC50 application (100 l per 10 ares, 5 cm depth)
Procedure, shortened: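 Calculated index: carp TLm (ppm) divided by the maximum compound concentration expected in paddy cover water. That concentration assumes 100 l of solution at the pest LC50 applied per 10 ares onto 5 cm deep cover water, all of it entering the water.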

[3] = test system: two-spotted spider mites (Tetranychus urticae Koch); assay: Mortality test with two-spotted spider mites by spray application method; format: in vivo; conditions: 48 h, 200 ppm spray, two days, read-out: Percent decrease of population (%)
Description: Mortality test with two-spotted spider mites (Tetranychus urticae Koch) by spray application method
To a 5% aqueous solution of acetone was added dropwise a small amount of Tween-20 (polyethylene sorbitan monolaurate) as a surfactant. […] From 30 to 50 adult two-spotted spider mites (Tetranychus urticae Koch) were released on the leaves of kidney-bean plants in the dicotyledonous stage in a pot 9 cm in diameter, followed by a spray application of the above solution. The pot was kept in a constant-temperature chamber at 26° C. and two days later the mites were examined for deaths. The percent decrease of population was then calculated.

[4] = test system: green rice leafhoppers (Nephotettix cincticeps Uhler); assay: Utility Example-4: 0.2% dust on rice seedlings, green rice leafhoppers; format: in vivo; conditions: 5 kg per 10 ares, 24 hours, resistant to organophosphorus and carbamate pesticides
Text: A 0.2% dust preparation of each of the cis- and trans-isomers and a 50:50 mixture of the cis- and trans-isomers of Compound (1) and of Compound (2) as prepared by the procedure described in Formulation Example-3 was applied to rice seedlings by means of a bell-jar duster at the rate of 5 kg per 10 ares. […] In all cases, the mortality was not less than 90%.

[5] = test system: houseflies (Musca domestica); assay: Mortality test with houseflies by topical application method; conditions: 24 h; for mortality at 0.001 mg: read-out: Pesticidal effect, housefly
Description: Mortality test with houseflies (Musca domestica) by topical application method
Each of the compounds according to this invention and the control compounds (Table 2) was accurately weighted and a 0.1% solution of each sample in acetone was prepared. Female adult houseflies (Musca domestica) resistant to organophosphorus pesticides, were anesthetized with ether and 0.5 μl or 1.0 μl of the above solution was micropipetted onto the prothoracic dorsal region of each insect. The insects were then put in a high-walled dish together with feed and the dish was covered with a wire-mesh cover and kept at a temperature of 25° C. The test insects were used in groups of 30 individuals each. After 24 hours the insects were examined for deaths and the percent mortality was calculated.

[6] = test system: rice stem borers (Chilo suppressalis Walker); assay: Mortality test with rice stem borers by topical application method; format: in vivo; conditions: 24 h; for mortality at 0.001 mg: read-out: Pesticidal effect, rice stem borer
Description: Mortality test with rice stem borers (Chilo suppressalis Walker) by topical application method
Using a microsyringe, 0.5 μl of the above solution was applied to the thoracic abdominal region of each final-instar larva of rice stem borer (Chilo suppressalis Walker). […] The test larvae were used in groups of 20 individuals each.

[7] = Toxicity test with water-fleas; format: in vivo, Daphnia pulex; conditions: water, 25±1° C., read-out: TLm, Water-flea (6 hrs.)
Description: Toxicity test with water-fleas (Daphnia pulex)
An acetone solution of one of the test compounds as mentioned in Table 10 and Tween-20 (the same surfactant as mentioned hereinbefore) was prepared. To 100 ml of water in a high-walled dish (9 cm in diameter, 7 cm deep) was added the above acetone solution. The mixture was stirred thoroughly to prepare an aqueous solution containing the test compound in a predetermined concentration. This was used as a test water. Twenty water-fleas (Daphnia pulex) were released into each test water which was maintained at 25±1° C. After 6 hours, the water-fleas were examined for deaths. The TLm (median tolerance limit, ppm) was determined.

[8] = test system: small brown planthoppers (Laodelphax striatellus Fallen); assay: Utility Example-3: spray on rice plants, small brown planthoppers; format: in vivo; conditions: 7 ml/pot, 24 hours
Description: A 30% emulsifiable concentrate of each of the cis- and trans-isomers and a 50:50 mixture of the cis- and trans-isomers of Compound (1) and of Compound (2) as prepared by the procedure described in Formulation Example-1 was diluted with water to a concentration of 80 ppm as active compound. Rice plants 4 weeks after sowing in pots (each pot 6 cm in diameter, 7 seedlings) were sprayed with the above diluted solution at the rate of 7 ml/pot and, after drying in the air, each pot was covered with a wire-mesh cage. Then, 30 adult small brown planthoppers (Laodelphax striatellus Fallen) were released into the cage. The pots were kept in a constant-temperature chamber at 25° C. […] In all groups, the mortality was not less than 90%.

Row | Structure (SMILES) | LC50 [1] | selectivity ratio [2] | mortality at 200 ppm [3] | mortality [4] | mortality at 0.5 µg/female [5] | mortality at 1 µg/female [5] | mortality at 1 µg/larva [6] | mortality at 10 µg/larva [6] | LC50 at 6 h [7] | mortality at 80 ppm [8] | mortality at 0.001 mg [5] | mortality at 0.001 mg [6]
1 | CC1(C)[C@@H](C=C(Cl)Cl)[C@@H]1C(=O)OCc1cccc(Oc2ccc(Cl)cc2)c1 (relative stereo) [Compound (1) trans-, 3-(4-chlorophenoxy)benzyl trans-2,2-dimethyl-3-(2,2-dichlorovinyl)cyclopropanecarboxylate] | 650 µg/mL (≈ 1530 µM) | 3.5 | 100% | not less than 90% | 100% | 100% | 85% | 100% | > 40 µg/mL | ≥ 90% | – | –
2 | C#CC(OC(=O)[C@@H]1[C@H](C=C(Cl)Cl)C1(C)C)c1cccc(Oc2ccc(Cl)cc2)c1 (relative stereo) [Compound (2) cis-] | 200 µg/mL (≈ 445 µM) | 2.1 | 100% | not less than 90% | 100% | 100% | 100% | 100% | > 40 µg/mL | ≥ 90% | – | –
3 | C#CC(OC(=O)[C@@H]1[C@@H](C=C(Cl)Cl)C1(C)C)c1cccc(Oc2ccc(Cl)cc2)c1 (relative stereo) [Compound (2) trans-] | 180 µg/mL (≈ 400 µM) | > 28 | 100% | not less than 90% | 100% | 100% | 100% | 100% | > 40 µg/mL | ≥ 90% | – | –
4 | CC1(C)C(C=C(Cl)Cl)C1C(=O)OCc1cccc(Oc2ccccc2)c1 (centres unmarked) [Compound (B), Permethrin] | 700 µg/mL (≈ 1790 µM) | 0.01 | 100% | – | 100% | 100% | 95% | 100% | – | – | 100% | 95%
5 | C#CC(OC(=O)C1C(C=C(Cl)Cl)C1(C)C)c1cccc(Oc2ccc(Cl)cc2)c1 (stereo not drawn) [Compound (2) cis-/trans- = 50:50, 3-(4-chlorophenoxy)-α-ethynylbenzyl 2,2-dimethyl-3-(2,2-dichlorovinyl)cyclopropanecarboxylate] | 190 µg/mL (≈ 422 µM) | – | 100% | not less than 90% | 100% | 100% | 100% | 100% | > 40 µg/mL | ≥ 90% | 100% | 100%

— patent publication US4389412A, “Substituted cyclopropanecarboxylic acid esters and pesticidal compositions containing the same as active ingredient” (priority 1979, dated 1983)
